Measured values reported in patent publication US11667651B2, “Aminopyridine derivatives as phosphatidylinositol phosphate kinase inhibitors” (HiberCell, Inc., priority 2017, dated 2023).

How the values were obtained:
[1] = target: T1, PIP4K2A (Homo sapiens, UniProt P48426); assay: ADP-glo kinase assay PIP4K 2A (Table 3); assay type: biochemical; parameters: made in house; host or cells: E. coli; settings: compounds listed under IC50 bins
T1 sequence (P48426 1-406): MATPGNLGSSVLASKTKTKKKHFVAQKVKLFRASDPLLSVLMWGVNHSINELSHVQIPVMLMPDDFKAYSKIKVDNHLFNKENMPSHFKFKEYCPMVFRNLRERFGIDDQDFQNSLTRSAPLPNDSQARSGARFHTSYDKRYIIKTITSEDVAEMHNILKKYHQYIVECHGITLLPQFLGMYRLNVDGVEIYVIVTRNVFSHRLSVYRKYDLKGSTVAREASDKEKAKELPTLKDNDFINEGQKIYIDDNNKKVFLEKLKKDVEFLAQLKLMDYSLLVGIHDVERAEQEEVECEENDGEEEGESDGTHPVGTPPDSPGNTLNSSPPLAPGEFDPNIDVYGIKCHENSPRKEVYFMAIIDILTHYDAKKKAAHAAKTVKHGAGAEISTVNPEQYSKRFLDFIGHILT
Description: Dilution series of the compounds were prepared in DMSO at 100 times the final assay concentration (n1=n0/3 in 10 points). The compounds were further diluted to three times the assay concentration in assay buffer (20 mM MOPS pH 7.2, 25 mM magnesium chloride, 0.005% Tween 20). 6 μL of the diluted compounds were added to a 384 well assay plate followed by 9 μL of a mix consisting of 4 nM PIP4K2A (full length protein, SignalChem) and 100 μM PI(5)P diC8 (Tebu-Bio). Enzyme and compounds were pre-incubated at room temperature for 15 minutes.
Then 3 μL of a solution containing 60 μM ATP (Promega) in assay buffer was added to the wells containing compound and enzyme and mixing was performed by pipetting several times. The reaction was incubated at room temperature for 1 h. Then 18 μL of ADP-Glo™ Reagent (Promega) was added to stop the kinase reaction and deplete the unconsumed ATP, mixing was performed by pipetting several times. The plate was incubated at room temperature for 40 minutes before addition of 36 μL of Kinase Detection Reagent (Promega) to convert ADP to ATP and introduce luciferase and luciferin to detect ATP. The reaction was incubated at room temperature for 40 minutes before the luminescence was measured in a in a Victor 3V 1420 multilabel counter (Perkin Elmer).
Percent inhibition of the compounds as compared to dimethyl sulfoxide treated control samples was calculated. Compound concentration versus percent inhibition were fitted to generate IC50 values. […]

[2] = target: T2, PIP4K2B (Homo sapiens, UniProt P78356); assay: Trans-FI P kinase assay PIP4K2B (Table 4); assay type: biochemical; settings: compounds listed under IC50 bins; read-out: Trans-FI P kinase assays: PIP4K2B IC50
T2 construct: made in house; host or cells: E. coli
T2 sequence (P78356 1-416): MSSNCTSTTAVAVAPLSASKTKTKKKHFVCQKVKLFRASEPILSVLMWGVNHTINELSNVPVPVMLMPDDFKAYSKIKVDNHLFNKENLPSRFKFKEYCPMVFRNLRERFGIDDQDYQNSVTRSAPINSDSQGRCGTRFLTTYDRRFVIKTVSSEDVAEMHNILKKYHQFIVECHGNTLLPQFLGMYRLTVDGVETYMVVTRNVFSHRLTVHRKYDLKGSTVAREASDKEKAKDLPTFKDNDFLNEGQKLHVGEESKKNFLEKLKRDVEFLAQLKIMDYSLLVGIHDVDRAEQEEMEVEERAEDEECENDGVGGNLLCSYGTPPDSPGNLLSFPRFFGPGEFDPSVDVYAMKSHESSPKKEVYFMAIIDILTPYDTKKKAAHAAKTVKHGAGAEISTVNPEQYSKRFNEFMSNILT
In short: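 Transcreener FI detection (Ex 584/Em 623) of GDP, converted via calibration curve, gives IC50 from residual activity versus log concentration (highest 4.8 μM). Reaction: 80 μM PI5P plus DOPE carrier, 100 μM GTP, 5 nM GST-tagged enzyme, pH 7.3 HEPES with MgCl2 and 5% DMSO, 2 h after 1 h enzyme-compound preincubation at 27° C.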

Compound | IC50 [1] | IC50 [2]
C[C@@]1(O)C[C@H]2COc3ncc(Nc4ccc(-c5ccc(N6CCCC6=O)c(F)c5)cn4)cc3N2C1=O [Example 270, (6aS,8R)-2-((5-(3-fluoro-4-(2-oxopyrrolidin-1-yl)phenyl)pyridin-2-yl)amino)-8-hydroxy-8-methyl-6,6a,7,8-tetrahydro-9H-pyrido[2,3-b]pyrrolo[1,2-d][1,4]oxazin-9-one] | 10 to 100 nM | 10 to 100 nM
O=C(Nc1cncc(Nc2ccc(-c3ccc(N4CCCC4=O)cc3)cn2)c1)C1CC1c1ccccc1 (centres unmarked) [Example 247, N-(5-((5-(4-(2-oxopyrrolidin-1-yl)phenyl)pyridin-2-yl)amino)pyridin-3-yl)-2-phenylcyclopropane-1-carboxamide] | 1 to 10 nM | 10 to 100 nM
Nc1nc(Nc2cnc3c(c2)N2C(=O)CC[C@H]2CO3)ncc1-c1ccc(N2CCCC2=O)cc1 [Example 199, (S)-2-((4-amino-5-(4-(2-oxopyrrolidin-1-yl)phenyl)pyrimidin-2-yl)amino)-6,6a,7,8-tetrahydro-9H-pyrido[2,3-b]pyrrolo[1,2-d][1,4]oxazin-9-one] | 1 to 10 nM | 1 to 10 nM
O=C1CCCN1c1ccc(-c2cnc(Nc3cnc4c(c3)N3C(=O)C5(CC5)C[C@H]3CO4)nc2)cc1 [Example 205, (S)-2′-((5-(4-(2-oxopyrrolidin-1-yl)phenyl)pyrimidin-2-yl)amino)-6a′,7′-dihydro-6′H,9′H-spiro[cyclopropane-1,8′-pyrido[2,3-b]pyrrolo[1,2-d][1,4]oxazin]-9′-one] | 1 to 10 nM | 1 to 10 nM
Cc1nc(Nc2cnc3c(c2)N2C(=O)CC[C@H]2CO3)ncc1-c1ccc(N2CCCC2=O)cc1 [Example 196, (S)-2-((4-methyl-5-(4-(2-oxopyrrolidin-1-yl)phenyl)pyrimidin-2-yl)amino)-6,6a,7,8-tetrahydro-9H-pyrido[2,3-b]pyrrolo[1,2-d][1,4]oxazin-9-one] | 10 to 100 nM | 1 to 10 nM
CN(C)C/C=C/C(=O)Nc1cccc(CCC(=O)Nc2cncc(Nc3ccc(-c4ccc(N5CCCC5=O)cc4)cn3)c2)c1 [Example 169, (E)-4-(dimethylamino)-N-(3-(3-oxo-3-((5-((5-(4-(2-oxopyrrolidin-1-yl)phenyl)pyridin-2-yl)amino)pyridin-3-yl)amino)propyl)phenyl)but-2-enamide] | 10 to 100 nM | 10 to 100 nM
Cc1cc(Nc2cnc3c(c2)N2C(=O)C4(CC4)C[C@H]2CO3)ncc1-c1ccc(N2CCCC2=O)cc1 [Example 206, (S)-2′-((4-methyl-5-(4-(2-oxopyrrolidin-1-yl)phenyl)pyridin-2-yl)amino)-6a′,7′-dihydro-6′H,9′H-spiro[cyclopropane-1,8′-pyrido[2,3-b]pyrrolo[1,2-d][1,4]oxazin]-9′-one] | 1 to 10 nM | 10 to 100 nM
CC(C)c1cc(Nc2cnc3c(c2)N2C(=O)CC[C@H]2CO3)ncc1-c1ccc(N2CCCC2=O)c(F)c1 [Example 181, (S)-2-((5-(3-fluoro-4-(2-oxopyrrolidin-1-yl)phenyl)-4-isopropylpyridin-2-yl)amino)-6,6a,7,8-tetrahydro-9H-pyrido[2,3-b]pyrrolo[1,2-d][1,4]oxazin-9-one] | 1 to 10 nM | 10 to 100 nM
Nc1nc(Nc2cnc3c(c2)N2C(=O)C4(CC4)C[C@H]2CO3)ncc1-c1ccc(N2CCCC2=O)cc1 [Example 204, (S)-2′-((4-amino-5-(4-(2-oxopyrrolidin-1-yl)phenyl)pyrimidin-2-yl)amino)-6a′,7′-dihydro-6′H,9′H-spiro[cyclopropane-1,8′-pyrido[2,3-b]pyrrolo[1,2-d][1,4]oxazin]-9′-one] | 1 to 10 nM | 1 to 10 nM
Cc1cc(-c2ccc(N3CCCC3=O)cc2)cnc1Nc1cnc2c(c1)N1C(=O)CC[C@H]1CO2 [Example 194, (S)-2-((3-methyl-5-(4-(2-oxopyrrolidin-1-yl)phenyl)pyridin-2-yl)amino)-6,6a,7,8-tetrahydro-9H-pyrido[2,3-b]pyrrolo[1,2-d][1,4]oxazin-9-one] | > 1000 nM | > 1000 nM
CCOc1ccc(C(=O)Nc2cncc(Nc3ccc(-c4ccc(N5CCCC5=O)cc4)cn3)c2)cn1 [Example 249, 6-ethoxy-N-(5-((5-(4-(2-oxopyrrolidin-1-yl)phenyl)pyridin-2-yl)amino)pyridin-3-yl)nicotinamide] | 1 to 10 nM | 10 to 100 nM
COCc1cc(Nc2cnc3c(c2)N2C(=O)C4(CC4)C[C@H]2CO3)ncc1-c1ccc(N2CCCC2=O)cc1 [Example 207, (S)-2′-((4-(methoxymethyl)-5-(4-(2-oxopyrrolidin-1-yl)phenyl)pyridin-2-yl)amino)-6a′,7′-dihydro-6′H,9′H-spiro[cyclopropane-1,8′-pyrido[2,3-b]pyrrolo[1,2-d][1,4]oxazin]-9′-one] | 1 to 10 nM | 1 to 10 nM
O=C1CCCN1c1ccc(-c2cnc(Nc3cnc4c(c3)N3C(=O)CC[C@H]3CO4)nc2)cc1F [Example 187, (S)-2-((5-(3-fluoro-4-(2-oxopyrrolidin-1-yl)phenyl)pyrimidin-2-yl)amino)-6,6a,7,8-tetrahydro-9H-pyrido[2,3-b]pyrrolo[1,2-d][1,4]oxazin-9-one] | 10 to 100 nM | 10 to 100 nM
CN1CCC(c2ccc(-c3ccc(Nc4cnc5c(c4)N4C(=O)CC[C@@H]4CO5)nc3)cc2)C1=O (stereo partly drawn) [Example 269, (6aR)-2-((5-(4-(1-methyl-2-oxopyrrolidin-3-yl)phenyl)pyridin-2-yl)amino)-6,6a,7,8-tetrahydro-9H-pyrido[2,3-b]pyrrolo[1,2d][1,4]oxazin-9-one] | > 1000 nM | > 1000 nM
O=C(Nc1cncc(Nc2ccc(-c3ccc(N4CCCC4=O)cc3)cn2)c1)N1CCOC(C2CC2)C1 (centres unmarked) [Example 262, 2-cyclopropyl-N-(5-((5-(4-(2-oxopyrrolidin-1-yl)phenyl)pyridin-2-yl)amino)pyridin-3-yl)morpholine-4-carboxamide] | 100 to 1000 nM | 10 to 100 nM
O=C(Nc1cncc(Nc2ccc(-c3ccc(N4CCCC4=O)cc3)cn2)c1)N1CCNC(C2CC2)C1 (centres unmarked) [Example 257, 3-cyclopropyl-N-(5-((5-(4-(2-oxopyrrolidin-1-yl)phenyl)pyridin-2-yl)amino)pyridin-3-yl)piperazine-1-carboxamide] | 100 to 1000 nM | 10 to 100 nM
CC(C)c1cc(Nc2cnc3c(c2)N2C(=O)C4(CC4)C[C@H]2CO3)ncc1-c1ccc(N2CCCC2=O)cc1 [Example 210, (S)-2′-((4-isopropyl-5-(4-(2-oxopyrrolidin-1-yl)phenyl)pyridin-2-yl)amino)-6a′,7′-dihydro-6′H,9′H-spiro[cyclopropane-1,8′-pyrido[2,3-b]pyrrolo[1,2-d][1,4]oxazin]-9′-one] | ≤ 1 nM | 1 to 10 nM
O=C(Nc1cncc(Nc2ccc(-c3ccc(N4CCCC4=O)cc3)cn2)c1)c1nn[nH]n1 [Example 254, N-(5-((5-(4-(2-oxopyrrolidin-1-yl)phenyl)pyridin-2-yl)amino)pyridin-3-yl)-2H-tetrazole-5-carboxamide] | 10 to 100 nM | 10 to 100 nM
Cc1cc(N2CCCC2=O)ccc1-c1cnc(Nc2cnc3c(c2)N2C(=O)CC[C@H]2CO3)nc1 [Example 198, (S)-2-((5-(2-methyl-4-(2-oxopyrrolidin-1-yl)phenyl)pyrimidin-2-yl)amino)-6,6a,7,8-tetrahydro-9H-pyrido[2,3-b]pyrrolo[1,2-d][1,4]oxazin-9-one] | 1 to 10 nM | 1 to 10 nM
